# According to US20260263584A1, “Modulating the Innate Immunity of RNA” (priority 2023, published 2026):
# System: Hela cells
# Format: cell-based, human
structure (smiles),measurement,value
"Cn1c(=O)n(C2CCC(=O)NC2=O)c2cccc(C#CCOC3CCN(C[C@H]4CC[C@H](n5cc(NC(=O)c6cnn7ccc(N8C[C@H]9C[C@@H]8CO9)nc67)c(C(F)F)n5)CC4)CC3)c21 (stereo partly drawn) [PF-07911620, N-{3-(difluoromethyl)-1-[(1S,4R)-4-({4-[(3-{1-[(3S)-2,6-dioxopiperidin-3-yl]-3-methyl-2-oxo-2,3-dihydro-1H-benzimidazol-4-yl}prop-2-yn-1-yl)oxy]piperidin-1-yl}methyl)cyclohexyl]-1H-pyrazol-4-yl}-5-[(1R,4R)-2-oxa-5-azabicyclo[2,2,1]heptan-5-yl]pyrazolo[1,5-a]pyrimidine-3-carboxamide]","frequency of HA-positive cells, higher than vehicle controls",5.5 fold
